Laboratory results taken from patent US20260308196A1, “HELICASE INHIBITORS” (H. LEE MOFFITT CANCER CENTER AND RESEARCH INSTITUTE, INC., priority 2023, published 2026).

System: T1, hCMG helicase
T1 construct: fork-unwinding strand displacement assay with ATP
Experiment: helicase assay (fork-unwinding; strand displacement assay)
Assay type: biochemical, human
Details: 20 uL reactions: 1 uL DMSO or drugs, 2 uL hCMG (~15 fmol enzyme), 0.5 mM ATP; RF1-134 compared to CA1 (100% inhibition); drug concentration not given
Method: For 20 uL reactions: 1 uL DMSO or drugs, 2 uL hCMG (~15 fmol enzyme), and 0.5 mM ATP were added. The noviose sugar (purple box; called RF1-134) was generated using synthetic chemical approaches. […] CA1 refers to coumermycin-A1.

CO[C@H]1[C@H](OC(=O)c2ccc(C)[nH]2)[C@H](O)[C@@H](Oc2ccc3c(O)c(NC(=O)c4c[nH]c(C(=O)Nc5c(O)c6ccc(O[C@H]7OC(C)(C)[C@@H](OC)[C@H](OC(=O)c8ccc(C)[nH]8)[C@@H]7O)c(C)c6oc5=O)c4C)c(=O)oc3c2C)OC1(C)C [CA1, coumermycin-A1]
inhibition of hCMG helicase activity: 100%
